Laboratory results taken from PMC5423775, “Structure of a AAA+ unfoldase in the process of unfolding substrate” (eLife, 2017).

Columns and labels:
ΔN-VAT = target: T1, ΔN-VAT (Thermoplasma acidophilum, UniProt O05209); test: cryo-EM structure, […] Å; format: binding; settings: 5 mM ATPγS, 50 mM HEPES pH 7.5, 100 mM NaCl; all twelve NBD1 and NBD2 nucleotide sites; six-fold symmetric stacked-ring state
T1 construct: N-terminal regulatory domain removed (Methods: 181 residues deleted; b5 says first 182), NBD1 + NBD2; N-terminal His6 tag with TEV site, pProEx vector; homohexamer
T1 sequence (O05209 182-745, stated change not applied): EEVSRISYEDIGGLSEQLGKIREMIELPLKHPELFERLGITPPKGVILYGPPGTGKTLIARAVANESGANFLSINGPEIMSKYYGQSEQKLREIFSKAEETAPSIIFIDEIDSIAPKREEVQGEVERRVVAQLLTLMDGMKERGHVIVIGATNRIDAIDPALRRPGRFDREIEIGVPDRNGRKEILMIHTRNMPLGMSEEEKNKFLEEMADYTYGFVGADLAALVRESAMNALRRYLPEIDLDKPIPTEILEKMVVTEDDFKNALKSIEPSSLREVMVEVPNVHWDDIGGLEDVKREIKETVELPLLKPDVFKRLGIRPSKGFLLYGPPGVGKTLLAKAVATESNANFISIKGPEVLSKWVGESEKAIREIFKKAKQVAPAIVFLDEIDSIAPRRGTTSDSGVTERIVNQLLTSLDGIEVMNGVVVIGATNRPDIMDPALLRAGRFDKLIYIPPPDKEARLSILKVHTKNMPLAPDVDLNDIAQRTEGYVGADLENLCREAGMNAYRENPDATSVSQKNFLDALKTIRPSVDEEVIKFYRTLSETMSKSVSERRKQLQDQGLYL

[1] = target: ΔN-VAT (Thermoplasma acidophilum VAT with the regulatory N-terminal domain removed) (Thermoplasma acidophilum) (UniProt O05209); test: cryo-EM structure; purified ΔN-VAT at ~20 mg/mL, 50 mM HEPES pH 7.5, 100 mM NaCl, 5 mM ATPγS, 0.05% IGEPAL CA-630; six-fold symmetric stacked-ring class (~85% of particle images), C6 symmetry applied, 3.9 Å

stoichiometry N [1] | Compound | cryo-EM structure, 3.9 Å (ΔN-VAT)
 | Nc1ncnc2c1ncn2[C@@H]1O[C@H](COP(=O)(O)OP(=O)(O)OP(O)(O)=S)[C@@H](O)[C@H]1O [ATPγS] | Density corresponding to ATPγS is visible in all twelve catalytic sites.
6 | ΔN-VAT (Thermoplasma acidophilum VAT with the regulatory N-terminal domain removed) (from UniProt O05209 182-745) (enzyme) | 
